# Where “and” joins values, the source holds several entries; their conditions need not be identical. Identical values can stand only once.
# Molecular target: T1, HsERK8 (Homo sapiens, UniProt Q8TD08)
# T1 construct: plasmid pGEX2T expressing the full-length hERK8 coding region; made in house; host or cells: Escherichia coli Rosetta 2 (DE3)
# T1 sequence (Q8TD08 1-544): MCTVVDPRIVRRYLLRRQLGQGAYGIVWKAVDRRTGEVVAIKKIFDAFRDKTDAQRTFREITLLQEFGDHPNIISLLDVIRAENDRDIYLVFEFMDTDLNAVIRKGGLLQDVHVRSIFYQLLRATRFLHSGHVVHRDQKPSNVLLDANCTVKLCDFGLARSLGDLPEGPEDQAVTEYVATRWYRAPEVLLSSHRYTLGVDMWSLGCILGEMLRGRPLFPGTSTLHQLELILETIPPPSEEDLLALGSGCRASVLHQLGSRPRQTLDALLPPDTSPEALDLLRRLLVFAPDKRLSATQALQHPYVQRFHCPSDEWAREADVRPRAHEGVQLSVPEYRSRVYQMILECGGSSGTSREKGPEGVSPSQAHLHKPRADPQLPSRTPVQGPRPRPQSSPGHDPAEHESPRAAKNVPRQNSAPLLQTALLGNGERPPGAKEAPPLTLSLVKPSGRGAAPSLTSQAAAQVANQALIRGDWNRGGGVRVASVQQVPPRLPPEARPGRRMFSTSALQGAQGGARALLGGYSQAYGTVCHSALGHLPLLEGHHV
# Assay: Luciferase-based kinase inhibition assay (ATP luminescence), GST-tagged HsERK8 with MBP substrate
# Assay type: biochemical
# Conditions: for raw luminescence, HsERK8: replicate wells; for Luminescence Raw (Kinase-Glo): HsERK8
# Method: Escherichia coli strain Rosetta 2 (DE3) (Cat# 71397, MilliporeSigma, Burlington, MA) was transformed with the plasmid pGEX2T expressing the full-length hERK8 coding region or pGSTAg expressing the full-length TbERK8 coding region. One liter of Terrific Broth media containing 100 μg/ml Ampicillin and 30 μg/ml chloramphenicol in 2 L baffled flasks was inoculated with 25 mL from an overnight culture of Rosetta 2 strains harboring either the pGEX2T-hERK8 or pGSTAg-TbERK8 plasmid. Two baffled flasks were inoculated with each overnight strain and incubated and shaken at 175 RPM in a New Brunswick Innova 44R Incubator Shaker (Fischer Scientific, Pittsburgh, PA) at 37 °C until the cultures reached an O.D.600 of 0.94. Once the cultures in the flask reached the target O.D.600, the flasks were cooled to 4 °C in an ice water bath. The cooled cultures were induced by adding isopropyl β-D-1-thiogalactopyranoside (IPTG) to a final concentration of 0.1 mM and shaken at 16 °C for 16 hours at 175 RPM in a New Brunswick Innova 44R Incubator Shaker (Fischer Scientific, Pittsburgh, PA). On the next day, the cultures were pelleted by centrifugation at 9000 xg in a JLA 10.500 rotor (Beckman Coulter; Brea, CA), and the media was decanted. The pellet was flash-frozen in liquid nitrogen and then thawed on ice. The thawed pellet was resuspended in lysis buffer (25 mM Tris, 75 mM NaCl, 0.5% TritonX-100 and 0.5% Nonidet P-40, 1 mM phenylmethanesulfonyl fluoride, 1 mM benzamidine⋅HCl) and lysed using a microfluidizer M-110P from Microfluidics (Westwood, MA). The crude lysates were clarified by centrifugation at 140,000 xg in a 45Ti rotor (Beckman Coulter, Brea, CA) for 30 min at 4°C. The clarified lysate was loaded by gravity to a 3 mL glutathione agarose resin column (Cat# G-250–10, GOLDBIO, St. Louis, MO) formed in a 1.5 × 20 cm glass chromatography column (Cat# 7371522, Bio-Rad, Hercules, CA). The column was washed with 30 mL of PBS (pH 7.4) containing 1 mM DTT. Elution buffer (50 mM Tris buffer pH 8.0 containing 10 mM reduced glutathione and 1 mM DTT was added to the washed column), and 1 mL fractions were collected by gravity and examined by SDS-PAGE stained by Coomassie dye. Peak fractions pooled from the elution were dialyzed (4x 1:500 dilutions) in kinase buffer (30 mM Tris, pH 7.4, 10 mM MgCl2, 1 mM DTT, 5% glycerol).
# We performed kinase assays in buffer K (30 mM Tris pH 7.4, 10 mM MgCl2, 1 mM DTT, 5% glycerol, 50 μM ATP, and 0.1 mg/mL BSA) at 30°C for 30 min in 30 μL reactions. GST-tagged HsERK8 and TbERK8 were tested using myelin basic protein (MBP) (Cat# 13–110, Millipore, Darmstadt, Germany) as the substrate at increasing concentrations to determine the optimal activity for the assay. ATP consumption was determined by adding equal volumes of the kinase assay reagent (Promega, Cat# V5601, Madison, WI) following the manufacturer’s protocol. Luminescence was measured using the microplate reader (SpectraMax L, Molecular Devices, Sunnyvale, CA).
# These compounds were screened for kinase inhibition utilizing a luciferase-based assay. Briefly, the kinases were tested using MBP as the substrate at a 14-fold molar excess in 384-well flat-bottom white plates (BRANDTECH Scientific, Cat# 781681, Essex, CT). These compounds were tested at concentrations ranging from […] to 150 nM. The kinases plus MBP substrate reactions were incubated with each inhibitor for 30 minutes at 30°C. Equal volumes of kinase assay mix Promega (Cat# V5601, Madison, WI) were added to the kinase/inhibitor reaction after 30 minutes, following the manufacturer’s protocol. ATP luminescence was measured using a microplate reader (SpectraMax L, Molecular Devices, Sunnyvale, CA). IC50 values were calculated from assays done in triplicate by fitting the data using Prism 8.1.1 (GraphPad).
smiles,measurement,setting,value
C[C@]12C=CC(=O)C=C1CC[C@@H]1[C@@H]2[C@@H](O)C[C@@]2(C)[C@H]1CC[C@]2(O)C(=O)CO [Prednisolone],IC50,,300 µM
same,"raw luminescence, HsERK8","0.00015 mM compound, sheet ADP_ATP_glo081724 (3)",2318.43 RLU and 2379.5 RLU and 1359.39 RLU
same,"raw luminescence, HsERK8","0.00015 mM compound, sheet Kinase_glo 08142024 (2)",11527 RLU and 11136 RLU and 8980.24 RLU
same,"raw luminescence, HsERK8","0.00015 mM compound, sheet Kinase_glo_080924_IFPS (2)",3541.75 RLU and 3582.18 RLU and 3076.85 RLU
same,"raw luminescence, HsERK8","0.00061 mM compound, sheet ADP_ATP_glo081724 (3)",2825.09 RLU and 2949.5 RLU and 2422.48 RLU
same,"raw luminescence, HsERK8","0.00061 mM compound, sheet Kinase_glo 08142024 (2)",11527 RLU and 11503.8 RLU and 9669.24 RLU
same,"raw luminescence, HsERK8","0.00061 mM compound, sheet Kinase_glo_080924_IFPS (2)",3770.83 RLU and 3829.22 RLU and 3330.64 RLU
same,"raw luminescence, HsERK8","0.00244 mM compound, sheet ADP_ATP_glo081724 (3)",3720.8 RLU and 3505.92 RLU and 3191.52 RLU
same,"raw luminescence, HsERK8","0.00244 mM compound, sheet Kinase_glo 08142024 (2)",11998.3 RLU and 11782.7 RLU and 9967.25 RLU
same,"raw luminescence, HsERK8","0.00244 mM compound, sheet Kinase_glo_080924_IFPS (2)",4143.65 RLU and 4112.2 RLU and 3658.53 RLU
same,"raw luminescence, HsERK8","0.00977 mM compound, sheet ADP_ATP_glo081724 (3)",3641.63 RLU and 3797.7 RLU and 3386.04 RLU
same,"raw luminescence, HsERK8","0.00977 mM compound, sheet Kinase_glo 08142024 (2)",11620 RLU and 11670.7 RLU and 9100.71 RLU
same,"raw luminescence, HsERK8","0.00977 mM compound, sheet Kinase_glo_080924_IFPS (2)",4774.74 RLU and 5053.23 RLU and 4529.94 RLU
same,"raw luminescence, HsERK8","0.03906 mM compound, sheet ADP_ATP_glo081724 (3)",4824.6 RLU and 4808.77 RLU and 4191.27 RLU
same,"raw luminescence, HsERK8","0.03906 mM compound, sheet Kinase_glo 08142024 (2)",13839.2 RLU and 14168.9 RLU and 11317.8 RLU
same,"raw luminescence, HsERK8","0.03906 mM compound, sheet Kinase_glo_080924_IFPS (2)",7209.85 RLU and 6169.43 RLU and 7796.61 RLU
same,"raw luminescence, HsERK8","0.15625 mM compound, sheet ADP_ATP_glo081724 (3)",6885.18 RLU and 7183.74 RLU and 7394.1 RLU
same,"raw luminescence, HsERK8","0.15625 mM compound, sheet Kinase_glo 08142024 (2)",27241.9 RLU and 27273.6 RLU and 25587 RLU
same,"raw luminescence, HsERK8","0.15625 mM compound, sheet Kinase_glo_080924_IFPS (2)",10574.2 RLU and 11234.5 RLU and 10315.9 RLU
same,"raw luminescence, HsERK8","0.62500 mM compound, sheet ADP_ATP_glo081724 (3)",8751.23 RLU and 9074.68 RLU and 6998.27 RLU
same,"raw luminescence, HsERK8","0.62500 mM compound, sheet Kinase_glo 08142024 (2)",32595.4 RLU and 32278.4 RLU and 37446.9 RLU
same,"raw luminescence, HsERK8","0.62500 mM compound, sheet Kinase_glo_080924_IFPS (2)",11504.5 RLU and 12982.8 RLU and 12069.3 RLU
same,"raw luminescence, HsERK8","2.50000 mM compound, sheet ADP_ATP_glo081724 (3)",11083.2 RLU and 11176 RLU and 9323.49 RLU
same,"raw luminescence, HsERK8","2.50000 mM compound, sheet Kinase_glo 08142024 (2)",34732.1 RLU and 34810.3 RLU and 30135.3 RLU
same,"raw luminescence, HsERK8","2.50000 mM compound, sheet Kinase_glo_080924_IFPS (2)",16242.2 RLU and 17136.1 RLU and 14690.3 RLU
same,"raw luminescence, HsERK8","10.00000 mM compound, sheet ADP_ATP_glo081724 (3)",12580.6 RLU and 13211.7 RLU and 13399.4 RLU
same,"raw luminescence, HsERK8","10.00000 mM compound, sheet Kinase_glo 08142024 (2)",37851.6 RLU and 37726.9 RLU and 37092.9 RLU
same,"raw luminescence, HsERK8","10.00000 mM compound, sheet Kinase_glo_080924_IFPS (2), signal = ATP left",19715.5 RLU and 19196.1 RLU and 19703.2 RLU
same,Luminescence Raw (Kinase-Glo),"inhibitor 0.00976562 mM, sheet Sil_Pred3, read 3",88068.9 and 93660.9 and 91592.3
same,Luminescence Raw (Kinase-Glo),"inhibitor 0.0195312 mM, sheet Sil_Pred3, read 3",91367.4 and 97331.9 and 97175
same,Luminescence Raw (Kinase-Glo),"inhibitor 0.0390625 mM, sheet Sil_Pred3, read 3",94347.3 and 94052.1 and 92142.9
same,Luminescence Raw (Kinase-Glo),"inhibitor 0.078125 mM, sheet Sil_Pred3, read 3",98578.2 and 105295 and 104564
same,Luminescence Raw (Kinase-Glo),"inhibitor 0.15625 mM, sheet Sil_Pred3, read 3",97978.5 and 103671 and 102378
same,Luminescence Raw (Kinase-Glo),"inhibitor 0.3125 mM, sheet Sil_Pred3, read 3",103442 and 105117 and 104861
same,Luminescence Raw (Kinase-Glo),"inhibitor 0.625 mM, sheet Sil_Pred3, read 3",118041 and 120665 and 116088
same,Luminescence Raw (Kinase-Glo),"inhibitor 0.00976562, sheet Sil_Pred1, read 1",100407 and 106564 and 102910
same,Luminescence Raw (Kinase-Glo),"inhibitor 0.00976562, sheet Sil_Pred2, read 2",90625.3 and 98037.5 and 95030.3
same,Luminescence Raw (Kinase-Glo),"inhibitor 0.0195312, sheet Sil_Pred1, read 1",105846 and 111118 and 110378
same,Luminescence Raw (Kinase-Glo),"inhibitor 0.0195312, sheet Sil_Pred2, read 2",95809.4 and 101447 and 100168
same,Luminescence Raw (Kinase-Glo),"inhibitor 0.0390625, sheet Sil_Pred1, read 1",108782 and 106859 and 106809
same,Luminescence Raw (Kinase-Glo),"inhibitor 0.0390625, sheet Sil_Pred2, read 2",97258.4 and 97956.1 and 97225.8
same,Luminescence Raw (Kinase-Glo),"inhibitor 0.078125, sheet Sil_Pred1, read 1",114996 and 120390 and 121203
same,Luminescence Raw (Kinase-Glo),"inhibitor 0.078125, sheet Sil_Pred2, read 2",101568 and 107854 and 109541
same,Luminescence Raw (Kinase-Glo),"inhibitor 0.15625, sheet Sil_Pred1, read 1",112780 and 119367 and 115572
same,Luminescence Raw (Kinase-Glo),"inhibitor 0.15625, sheet Sil_Pred2, read 2",101289 and 108375 and 104275
same,Luminescence Raw (Kinase-Glo),"inhibitor 0.3125, sheet Sil_Pred1, read 1",120905 and 121070 and 122162
same,Luminescence Raw (Kinase-Glo),"inhibitor 0.3125, sheet Sil_Pred2, read 2",107913 and 110173 and 110911
same,Luminescence Raw (Kinase-Glo),"inhibitor 0.625 (mM per sheet Pred3), sheet Kinase-Glo802124_Sil_Pred1, read 1, triplicate wells",138550 and 138736 and 130936
same,Luminescence Raw (Kinase-Glo),"inhibitor 0.625, sheet Sil_Pred2, read 2",122997 and 124612 and 121493

# Source: paper PMC12445744, “Molecular docking to homology models of human and Trypanosoma brucei ERK8 that identified ortholog-specific inhibitors” (PLOS Neglected Tropical Diseases, 2025)
